The values that follow come from patent US20250179108A1, “UTILITY OF NEMATODE SMALL MOLECULES” (California Institute of Technology, priority 2011, published 2025).

The subject of experiment [1] is P. redivivus females. As to the kind of experiment: Repulsion scoring by behavioral response (immediate exit of the conditioned region). Format: in vivo, Panagrellus redivivus. The following applies: high concentrations. The text has this: The inventors thus used a separate method for scoring repulsion that focused on behavioral response rather than time spent in each region.

The test system of experiment [2] is males from many of the nematode species tested. As to the kind of experiment: Attraction assay, males of different nematode species. As to conditions: 1 nM, 1 μM and 1 mM tested. Format: in vivo. The procedure:
FIG. 5A depicts, in accordance with an embodiment herein, that ascarosides mediate behavior of nematode species from diverse generas. Species that were amenable to test in the attraction assay (sufficient movement, unbiased direction, reproducible controls) were scored for attraction or repulsion toward three concentrations (1 mM, 1 μM, and 1 nM: from left to right) of 13 different ascarosides. Pvalues were determined using the Student's t-test with a P<0.05. The score “0” represents any findings where P>0.05.
(§1) To investigate the biological function of the ascarosides identified in the MS screen, the inventors used a bioassay (FIGS. 1A-1C) to measure attraction of different nematode species to a wide range of ascaroside concentrations (1 nM, 1 μM, and 1 mM). For these bioassays, nematode species had to fulfill several requirements, such as sufficient movement on bacterial lawns, low tendency to aggregate, easy to grow, and generally reproducible locomotive behavior. This study was limited to a survey of males from different species, because males tended to move much more evenly across our bioassay lawn than females and hermaphrodites (with the exception of P. redivivus females, which move well and were therefore in this study.)
(§2) OP50 E. coli is grown on a standard 5 cm agar plate (made with standard Nematode Growth Medium). The bacterial lawn is 16 mm in diameter and is grown overnight at 20C before being used in trials. Two 4-mm spots ([…]) were placed on opposite sides of the bacterial lawn (using a transparent template to guide spot placement) and several minutes elapsed for the liquid to settle in before placing nematodes down on the assay. Recording began immediately upon worm placement. […] of the control was placed on one side of the lawn and […] of the experimental cue was placed on the other side of the lawn, changing the location of the cue throughout trials, between left/right and top/bottom to avoid bias. Nematodes were isolated by gender at the L4 stage the day before being used in trials as developed adults. Five worms were each placed at two points equidistant from the foci of the scoring region (ten total). Trials were recorded for 20 minutes and frames were collected for analysis at 1 frame per second. Results were averaged from at least three different trials. For every nematode species in this study, the inventors tested different total number of worms (using water in both scoring regions) to determine the minimum number of worms necessary for consistent unbiased results over a 20-minute trial. The total number of worms used in the multiple species assays depending on that species' optimal parameters. 10 worms were for P. redivivus males and females, 20 worms were used for C. elegans males, O. dolichuridae males, and C. sp7 males and 14 worms were used forS. glaseri males.
A video camera attached to the microscope produces a digital video stream, which is then analyzed. The ratio of time the average worm spends in each region of interest is calculated for every trial. For ease of implementation, it was assumed that all worms in a single experiment are roughly the same size. Thus, worm pixels were counted instead of whole worms, allowing the inventors to take into account fractions of a worm in the region of interest. It also eliminated the need for a shape-based worm identification algorithm, and allowed each frame to be analyzed independently. The inventors applied a band-pass filter to each frame to eliminate the effect of uneven lighting and also accentuate the worms against the background. The worm was then identified after thresholding the filtered image. Throughout each experiment, the inventors know the locations and sizes of the regions of interest. Through the filtering described above, the inventors know which pixels are occupied by worms and which ones are not. They are then able to calculate the ratio of worm-pixels to all pixels inside the region of interest to produce the worm- occupancy ratio. […]

In another experiment the test system is P. redivivus males. Briefly: Attraction assay, Panagrellus redivivus males. In kind it is in vivo. The procedure:
(§3) FIG. 1A depicts, in accordance with an embodiment herein, a chemoattraction assay to reveal a gender specific mate finding cue in Panagrellus redivivus. A transparent template is attached below a 5-cm plate with a 16-mm bacterial lawn to delineate two scoring regions into which 0.6μL of the experimental sample and control sample are placed. Ten P. redivivus males are placed at points equidistant from the two scoring regions and the plate is recorded for 20 minutes (at a rate of 1 frame per second).
(§4) FIG. 1B depict attraction measured using software that computes the ratio of worm-pixels to total pixels for each scoring region.
(§5) FIG. 1C that the output is a plot of worm occupancy ratio vs. time for both scoring regions. The shown graph indicates strong attraction of P. redivivus males to the experimental sample. FIG. 2A depicts, in accordance with an embodiment herein, purification of the female sex pheromone in Panagrellus redivivus.
OP50 E. coli is grown on a standard 5 cm agar plate (made with standard Nematode Growth Medium). The bacterial lawn is 16 mm in diameter and is grown overnight at 20C before being used in trials. Two 4-mm spots ([…]) were placed on opposite sides of the bacterial lawn (using a transparent template to guide spot placement) and several minutes elapsed for the liquid to settle in before placing nematodes down on the assay. Recording began immediately upon worm placement. […] Trials were recorded for 20 minutes and frames were collected for analysis at 1 frame per second. […]
(§6) A video camera attached to the microscope produces a digital video stream, which is then analyzed. The ratio of time the average worm spends in each region of interest is calculated for every trial. […] Thus, worm pixels were counted instead of whole worms, allowing the inventors to take into account fractions of a worm in the region of interest. It also eliminated the need for a shape-based worm identification algorithm, and allowed each frame to be analyzed independently. […]

A further experiment deals with asthmatic mice. Briefly: Ovalbumin induction of asthma, allergic airway inflammation in mice. In kind it is in vivo. As to conditions: for eosinophils / mucus hyper-production / cellular infiltration into the lungs: asthmatic mice; for cellular infiltration into the lungs: lung histology. The procedure:
FIG. 7A depicts, in accordance with an embodiment herein, sensitization with OVA+ Control/Alum (N=3) and sensitization with OVA+NES/Alum (N=3), in Nippostrongylus brasiliensis. The experimental model is ovalbumin inducation of asthma. […] No worm, living or dead, is introduced into the asthma model. Furthermore, proteins were eliminated by denaturing at 100C for 25 minutes, and filtering through a 10 kDa filter. FIGS. 7B-7D depict the histology of mice treated with NES.
The effects of ascarosides are examined for an allergic airway inflammation.

The test system of a further experiment is C. elegans. The following applies: cited from earlier work.
Experiment [3] deals with P. redivivus females. Briefly: Attraction assay, Panagrellus redivivus females. Format: in vivo. The method, then: as §3, §4, §5
as §2, with “The total number of worms used in the multiple species assays depending on that species' optimal parameters. 10 worms were for P. redivivus males and females, 20 worms were used for C. elegans males, O. dolichuridae males, and C. sp7 males and 14 worms were used forS. glaseri males.” left out
as §6

Experiment [4] has as its system C. elegans males. The following applies: reduced attraction at high concentrations; cited from earlier work.
Experiment [5] relates to C. elegans males. As to the kind of experiment: Attraction assay, C. elegans males. Format: in vivo, Caenorhabditis elegans. The following applies: tested at 1 nM, 1 μM and 1 mM. The procedure:
as §1
OP50 E. coli is grown on a standard 5 cm agar plate (made with standard Nematode Growth Medium). […] Trials were recorded for 20 minutes and frames were collected for analysis at 1 frame per second. […]
as §6

The mark [6] stands for this setting: any of the tested concentrations.

“Also recorded” adds a separate entry of the source.

`CC1O[C@@H](O[C@H](C)CCCCC(=O)O)C(O)C[C@H]1O` (single isomer, unassigned; (-)) [ascr #1, (−) 6-(3,5-dihydroxy-6-methyltetrahydropyran-2-yloxy) heptanoic acid]: the “female repulsion, immediate exit of the conditioned region before entering a full worm's length” value in the experiment on P. redivivus females [1] is “significantly repelled”. In addition, the attraction of males result in experiment [2] is “attracted”. The “male attraction (Attraction Bioassay)” value with P. redivivus males (P. redivivus males) is “strongly attracted; also recorded: full male attraction”. Also, in the experiment on asthmatic mice, the eosinophils result is “reduction”, the mucus hyper-production entry is reported as “decreased” and the “cellular infiltration into the lungs” value is recorded as “decreased”. The eosinophils entry with asthmatic mice (listed as Ascr #1) was “some effect”. Further, the “induction of diapause (dauer)” value with C. elegans was “weakly induces diapause”. Further, the female attraction result in the experiment on P. redivivus females [3] (setting [6]) is reported as “not attracted”. Moreover, the female attraction result with P. redivivus females [3] (between 100 and 106 fmol, FIG. 2E) is “not attracted”. Further, the “female repulsion, semi-automated scoring method” value in the experiment with P. redivivus females [3] (time spent in each region) is listed as “not significantly repelled”.

Regarding `CC(=O)CCCC(C)OC1OC(C)C(O)CC1O` (centres unmarked) [ascr #2], the “male response to hermaphroditic sex pheromones” value with C. elegans males [4] is listed as “biphasic response”.

For the compound `CC1O[C@@H](O[C@H](C)CCCC/C=C/C(=O)O)[C@@H](O)C[C@H]1O` (some centres unmarked) [ascr #3], in the experiment on C. elegans males [4], the “male response to hermaphroditic sex pheromones” value is given as “biphasic response”. For the same compound, in experiment [2], the attraction of males result is recorded as “attracted”. For the same compound, in the experiment with asthmatic mice, the eosinophils result is “reduction; also recorded: some effect”, the mucus hyper-production result was “decreased” and the “cellular infiltration into the lungs” value is recorded as “decreased”.

For the compound `C[C@H](CC/C=C/C(=O)O)O[C@@H]1O[C@@H](C)[C@H](O)C[C@H]1O` [ascr #7], the attraction of males result in experiment [2] was “attracted”. Further, the male attraction entry in the experiment on P. redivivus males (1 mM and 1 μM) was “attracted”. Further, in the experiment with asthmatic mice, the eosinophils entry is given as “reduction; also recorded: markedly reduced”, the mucus hyper-production entry is “decreased” and the “cellular infiltration into the lungs” value is listed as “decreased”. Also, the “effect on allergic airway inflammation” value in the experiment on asthmatic mice (synthesized ascarosides tested individually, FIG. 10B) is reported as “inhibitory effect”. In the experiment with C. elegans males [5], the “male response (attraction)” value is on record as “only respond to 1 mM”.

With `C[C@H](CC/C=C/C(=O)Nc1ccc(C(=O)O)cc1)O[C@@H]1O[C@@H](C)[C@H](O)C[C@H]1O` [ascr #8], in experiment [2], the attraction of males entry is “attracted”.

Take `CC1O[C@@H](O[C@H](C)CCC(=O)O)[C@@H](O)C[C@H]1O` (some centres unmarked) [ascr #9]: the attraction of males result in experiment [2] is on record as “attracted”.

In the case of `CC1O[C@@H](O[C@H](C)CCCCCCC(=O)O)[C@@H](O)C[C@H]1O` (some centres unmarked) [ascr #10], in experiment [2], the attraction of males entry is recorded as “attracted”. Further, the male attraction entry with P. redivivus males (very high, nonphysiological concentration of 1 mM) is “some attraction”. Also, in the experiment on P. redivivus females [3] (setting [6]), the female attraction result is recorded as “do not respond”.
